The source made the active and inactive calls. No cut-off for these calls is given here.

Data set [1] concerns the target Sodium-dependent noradrenaline transporter (Homo sapiens) (UniProt P23975). As to the kind of experiment: Inhibition of NET PDSP analysis.
For data set [2], the species on record is Mus musculus. Description: Effect on behavioral activity in Albino mouse assessed as inhibition of diazepam-induced startle reaction at 0.2 ml/10 g by hippocratic screen. In kind it is functional, organism-based.
Data set [3] is filed under the species Mus musculus. As to the kind of experiment: Effect on behavioral activity in Albino mouse assessed as inhibition of diazepam-induced loss of righting reflex at 0.2 ml/10 g after 1 hr by hippocratic screen. In kind it is functional, organism-based.
For data set [4], the species on record is Mus musculus. Description: Effect on behavioral activity in Albino mouse assessed as inhibition of diazepam-induced decrease in motor activity at 0.2 ml/10 g for 10 to 15 mins by hippocratic screen. In kind it is functional, organism-based.
Data set [5] is filed under the species Mus musculus. As to the kind of experiment: Effect on behavioral activity in Albino mouse assessed as inhibition of diazepam-induced decrease in respiratory rate at 0.2 ml/10 g by hippocratic screen. Type of data set: functional, organism-based.
For data set [6], the species on record is Mus musculus. As to the kind of experiment: Effect on behavioral activity in Albino mouse assessed as inhibition of diazepam-induced ataxia at 0.2 ml/10 g after 5 mins by hippocratic screen. In kind it is functional, organism-based.
The species entered for data set [7] is Mus musculus. Description: CNS toxicity in Albino mouse assessed as pinnal reflex at 0.2 ml/10 g by hippocratic screen. The settings on record: in vivo. Type of data set: organism-based.
Data set [8] is filed under the species Mus musculus. Description: Effect on behavioral activity in Albino mouse assessed as inhibition of diazepam-induced loss of screen grip at 0.2 ml/10 g by hippocratic screen. Type of data set: functional, organism-based.
The species named for data set [9] is Mus musculus. As to the kind of experiment: Effect on behavioral activity in Albino mouse assessed as inhibition of diazepam-induced paralysis at 0.2 ml/10 g by hippocratic screen. In kind it is functional, organism-based.
Data set [10] is filed under the species Mus musculus. As to the kind of experiment: Effect on behavioral activity in Albino mouse assessed as inhibition of diazepam-induced anesthesia at 0.2 ml/10 g by hippocratic screen. Type of data set: functional, organism-based.
The species entered for data set [11] is Mus musculus. As to the kind of experiment: Effect on behavioral activity in Albino mouse assessed as inhibition of diazepam-induced loss of analgesia at 0.2 ml/10 g by hippocratic screen. In kind it is functional, organism-based.
For data set [12], the species on record is Mus musculus. Description: CNS toxicity in Albino mouse assessed as ataxia at 0.2 ml/10 g by hippocratic screen. In kind it is organism-based. The settings on record: in vivo.
The species entered for data set [13] is Mus musculus. As to the kind of experiment: CNS toxicity in Albino mouse assessed as tremors at 0.2 ml/10 g by hippocratic screen. Type of data set: organism-based. The settings on record: in vivo.
Data set [14] is filed under the species Mus musculus. As to the kind of experiment: CNS toxicity in Albino mouse assessed as change in respiratory rate at 0.2 ml/10 g by hippocratic screen. Type of data set: organism-based. The settings on record: in vivo.
For data set [15], the species on record is Mus musculus. Description: Effect on behavioral activity in Albino mouse assessed as inhibition of diazepam-induced pinnal reflex at 0.2 ml/10 g by hippocratic screen. In kind it is functional, organism-based.
Data set [16] is filed under the species Mus musculus. As to the kind of experiment: CNS toxicity in Albino mouse assessed as loss of righting reflex at 0.2 ml/10 g by hippocratic screen. Type of data set: organism-based. The settings on record: in vivo.
Data set [17] relates to Mus musculus. As to the kind of experiment: CNS toxicity in Albino mouse assessed as anesthetic response at 0.2 ml/10 g by hippocratic screen. In kind it is organism-based. The settings on record: in vivo.
Data set [18] is filed under the species Mus musculus. As to the kind of experiment: CNS toxicity in Albino mouse assessed as paralysis at 0.2 ml/10 g by hippocratic screen. Type of data set: organism-based. As to conditions: in vivo.
The species entered for data set [19] is Mus musculus. As to the kind of experiment: CNS toxicity in Albino mouse assessed as decrease in motor activity at 0.2 ml/10 g by hippocratic screen. In kind it is organism-based. The settings on record: in vivo.
For data set [20], the species on record is Mus musculus. As to the kind of experiment: Effect on behavioral activity in Albino mouse assessed as inhibition of diazepam-induced loss of righting reflex at 0.2 ml/10 g after 2 hrs by hippocratic screen. In kind it is functional, organism-based.
For data set [21], the species on record is Mus musculus. Description: CNS toxicity in Albino mouse assessed as loss of analgesic activity at 0.2 ml/10 g by hippocratic screen. Type of data set: organism-based. The settings on record: in vivo.
Data set [22] is filed under the species Mus musculus. Description: CNS toxicity in Albino mouse assessed as startle reaction at 0.2 ml/10 g by hippocratic screen. Type of data set: organism-based. As to conditions: in vivo.
For data set [23], the species on record is Mus musculus. As to the kind of experiment: CNS toxicity in Albino mouse assessed as loss of screen grip at 0.2 ml/10 g by hippocratic screen. Type of data set: organism-based. The settings on record: in vivo.
The species named for data set [24] is Mus musculus. Description: Effect on behavioral activity in Albino mouse assessed as inhibition of diazepam-induced tremors at 0.2 ml/10 g by hippocratic screen. Type of data set: functional, organism-based.
The target of data set [25] is Sodium-dependent dopamine transporter (Homo sapiens) (UniProt Q01959).
Description: Inhibition of DAT PDSP analysis
Data set [26] is filed under the species Mus musculus. Description: Effect on behavioral activity in Albino mouse assessed as inhibition of diazepam-induced ataxia at 0.2 ml/10 g for 15 mins by hippocratic screen. In kind it is functional, organism-based.
For data set [27], the species on record is Mus musculus. As to the kind of experiment: Effect on behavioral activity in Albino mouse assessed as inhibition of diazepam-induced decrease in motor activity at 0.2 ml/10 g for 2 hrs by hippocratic screen. In kind it is functional, organism-based.
For data set [28], the target named is Sodium-dependent serotonin transporter (Homo sapiens) (UniProt P31645). As to the kind of experiment: Inhibition of SERT PDSP analysis. Set-up: scale not given: the % may be the effect or the level left.
Chain of Sodium-dependent serotonin transporter (Homo sapiens) (P31645 whole entry, looked up): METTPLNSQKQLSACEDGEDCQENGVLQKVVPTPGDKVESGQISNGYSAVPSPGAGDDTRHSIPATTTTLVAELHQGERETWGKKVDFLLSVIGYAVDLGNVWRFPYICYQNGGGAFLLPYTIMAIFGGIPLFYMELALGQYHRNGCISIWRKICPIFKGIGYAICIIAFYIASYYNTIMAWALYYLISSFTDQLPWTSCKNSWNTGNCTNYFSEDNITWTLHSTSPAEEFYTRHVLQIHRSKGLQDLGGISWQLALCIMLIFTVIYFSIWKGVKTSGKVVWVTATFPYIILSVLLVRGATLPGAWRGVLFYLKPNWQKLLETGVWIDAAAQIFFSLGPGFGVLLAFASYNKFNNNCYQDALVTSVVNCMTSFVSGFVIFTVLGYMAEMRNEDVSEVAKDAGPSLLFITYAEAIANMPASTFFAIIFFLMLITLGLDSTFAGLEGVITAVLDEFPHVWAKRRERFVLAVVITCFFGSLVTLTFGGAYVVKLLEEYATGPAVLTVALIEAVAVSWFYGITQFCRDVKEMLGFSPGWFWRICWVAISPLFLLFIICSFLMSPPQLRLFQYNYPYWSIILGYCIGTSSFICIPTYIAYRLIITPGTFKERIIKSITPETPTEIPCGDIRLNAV

Chain of Sodium-dependent dopamine transporter (Homo sapiens) (Q01959 whole entry): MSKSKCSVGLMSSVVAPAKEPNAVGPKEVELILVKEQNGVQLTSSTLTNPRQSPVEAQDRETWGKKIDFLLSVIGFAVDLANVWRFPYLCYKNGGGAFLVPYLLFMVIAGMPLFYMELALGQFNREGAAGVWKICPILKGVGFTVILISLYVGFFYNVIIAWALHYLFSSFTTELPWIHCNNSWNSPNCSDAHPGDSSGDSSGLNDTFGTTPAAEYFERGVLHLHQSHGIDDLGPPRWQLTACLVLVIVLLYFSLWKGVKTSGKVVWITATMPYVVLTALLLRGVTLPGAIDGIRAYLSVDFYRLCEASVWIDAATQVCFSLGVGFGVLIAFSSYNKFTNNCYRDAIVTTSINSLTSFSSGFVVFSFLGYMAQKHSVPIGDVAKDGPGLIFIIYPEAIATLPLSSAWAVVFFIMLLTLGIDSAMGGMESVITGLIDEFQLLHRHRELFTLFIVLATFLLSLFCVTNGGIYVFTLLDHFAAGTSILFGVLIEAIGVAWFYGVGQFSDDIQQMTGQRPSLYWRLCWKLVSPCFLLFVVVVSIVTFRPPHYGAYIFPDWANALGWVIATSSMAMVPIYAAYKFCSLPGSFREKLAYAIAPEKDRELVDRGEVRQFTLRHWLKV
Chain of Sodium-dependent noradrenaline transporter (Homo sapiens) (P23975 whole entry): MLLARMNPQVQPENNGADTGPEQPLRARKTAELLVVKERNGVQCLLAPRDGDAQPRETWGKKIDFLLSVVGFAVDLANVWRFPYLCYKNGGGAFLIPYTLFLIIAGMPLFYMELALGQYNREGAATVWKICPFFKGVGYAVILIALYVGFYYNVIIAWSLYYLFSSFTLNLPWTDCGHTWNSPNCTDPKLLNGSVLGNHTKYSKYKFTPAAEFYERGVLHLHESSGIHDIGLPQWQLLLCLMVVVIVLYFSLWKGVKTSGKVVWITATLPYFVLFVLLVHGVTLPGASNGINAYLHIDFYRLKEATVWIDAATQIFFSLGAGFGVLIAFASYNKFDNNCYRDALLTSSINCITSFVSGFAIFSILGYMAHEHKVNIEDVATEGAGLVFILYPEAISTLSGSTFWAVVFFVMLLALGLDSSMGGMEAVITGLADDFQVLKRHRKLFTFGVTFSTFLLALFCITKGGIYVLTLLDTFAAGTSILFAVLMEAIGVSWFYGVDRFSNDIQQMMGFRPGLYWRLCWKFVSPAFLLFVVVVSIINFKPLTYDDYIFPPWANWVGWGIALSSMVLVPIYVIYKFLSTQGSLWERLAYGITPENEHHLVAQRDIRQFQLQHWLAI

Take `NC[C@H](O)c1ccc(O)c(O)c1`: in data set [1], the Ki (in general, the equilibrium dissociation constant of an inhibitor or competing ligand from its target) is over 10 µM.

In the case of `COc1ccc2c3c(oc2c1)C(=O)Nc1cc(C)cc[n+]1C3.[Cl-]`, the outcome in the data set filed under Mus musculus [2], in the data set listed under Mus musculus [5], in the data set listed under Mus musculus [6], in the data set filed under Mus musculus [8], in the data set listed under Mus musculus [9] and in the data set filed under Mus musculus [10] was inactive. Besides, the result in the data set filed under Mus musculus [11], in the data set filed under Mus musculus [15], in the data set filed under Mus musculus [20] and in the data set listed under Mus musculus [24] was inactive. The result in the data set filed under Mus musculus [3] and in the data set filed under Mus musculus [4] was Active. The Activity result in the data set filed under Mus musculus [7], in the data set listed under Mus musculus [12], in the data set filed under Mus musculus [13], in the data set filed under Mus musculus [14], in the data set filed under Mus musculus [16] and in the data set with Mus musculus [17] was “Non-toxic” each time. For the same compound, the Activity result in the data set filed under Mus musculus [18], in the data set listed under Mus musculus [19], in the data set listed under Mus musculus [21], in the data set filed under Mus musculus [22] and in the data set listed under Mus musculus [23] was “Non-toxic” each time.

`NCCc1ccc(O)c(O)c1` had a Ki in data set [25] of over 10 µM.

As for `COc1ccc2c3c(oc2c1)C(=O)Nc1cccc(C)[n+]1C3.[Cl-]`, the result in the data set filed under Mus musculus [2], in the data set listed under Mus musculus [5], in the data set filed under Mus musculus [8], in the data set listed under Mus musculus [9], in the data set listed under Mus musculus [10] and in the data set filed under Mus musculus [11] was inactive. In addition, the outcome in the data set listed under Mus musculus [15], in the data set listed under Mus musculus [20] and in the data set listed under Mus musculus [24] was inactive. Moreover, the Activity entry in the data set filed under Mus musculus [7], in the data set listed under Mus musculus [12], in the data set listed under Mus musculus [13], in the data set filed under Mus musculus [14], in the data set listed under Mus musculus [16] and with Mus musculus [17] was “Non-toxic” in each case. In addition, the Activity result in the data set listed under Mus musculus [18], in the data set filed under Mus musculus [19], in the data set listed under Mus musculus [21], in the data set filed under Mus musculus [22] and in the data set filed under Mus musculus [23] was “Non-toxic” throughout. Further, the outcome in the data set listed under Mus musculus [26] and in the data set filed under Mus musculus [27] was Active.

Compound `NCCc1c[nH]c2ccc(O)cc12` yielded an Activity in [28] of over 10000%.

(Values after ChEMBL document CHEMBL1157703, “Synthesis, pharmacological studies and molecular modeling of some tetracyclic 1,3-diazepinium chlorides” (Bioorg Med Chem, 2010).)
